Results published in patent EP0745599A2, “1-(3-Heterocyclylphenyl)-s-triazine-2,4,6-oxo or thiotrione herbicidal agents” (American Cyanamid Company, priority 1995, dated 1996).

Key:
Format in all cases: in vivo
Details in all cases: rated four to five weeks after treatment
[1] = test system: ZEA MAYS L.; assay: Preemergence herbicidal evaluation, ZEAMX (Corn, Field)
Outline: (§1)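 Values are visual ratings from 0 to 9, judged against a control on stand, vigor, malformation, size, chlorosis and overall appearance. Test compound in aqueous acetone was sprayed onto freshly seeded cups at roughly 0.125 to 0.50 kg per hectare, with scoring four to five weeks later.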

[2] = test system: ECHINOCHLOA CRUS-GALLI, (L) BEAU; assay: Postemergence herbicidal evaluation, ECHCG (Barnyardgrass)
Outline: (§2)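 Compound is dispersed in 50/50 acetone/water containing 0.5% TWEEN®20 and sprayed at 40 psi onto seedlings about two weeks old, delivering about 0.125–0.500 kg/ha. Injury is scored 0–9 four to five weeks later.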

[3] = test system: TRITICUM AESTIVUM, CV. APOLLO; assay: Preemergence herbicidal evaluation, TRZAWO (Wheat, Winter, CV. APOLLO)
Outline: as §1

[4] = test system: IPOMOEA SPP.; assay: Preemergence herbicidal evaluation, IPOSS (Morningglory Spp.)
Outline: as §1

[5] = test system: ABUTILON THEOPHRASTI, MEDIC.; assay: Preemergence herbicidal evaluation, ABUTH (Velvetleaf)
Outline: as §1

[6] = test system: ZEA MAYS L.; assay: Postemergence herbicidal evaluation, ZEAMX (Corn, Field)
Procedure: (§3) In the tests, seedling plants are grown in jiffy flats for about two weeks. The test compounds are dispersed in 50/50 acetone/water mixtures containing 0.5% TWEEN®20, a polyoxyethylene sorbitan monolaurate surfactant of Atlas Chemical Industries, in sufficient quantities to provide the equivalent of about 0.125 kg to 0.500 kg per hectare of active compound when applied to the plants through a spray nozzle operating at 40 psi for a predetermined time. After spraying, the plants are placed on greenhouse benches and are cared for in the usual manner, commensurate with conventional greenhouse practices. From four to five weeks after treatment, the seedling plants are examined and rated according to the rating system set forth below. Where more than one test is involved for a given compound, the data are averaged.
(§4) Results of herbicide evaluation are expressed on a rating scale (0-9). The scale is based upon a visual observation of plant stand, vigor, malformation, size, chlorosis and overall plant appearance as compared with a control.

[7] = test system: GLYCINE MAX(L)MERR. CV. WILLIAMS; assay: Preemergence herbicidal evaluation, GLXMAW (Soybean, Williams)
Outline: as §1

[8] = test system: SETARIA VIRIDIS, (L) BEAU; assay: Postemergence herbicidal evaluation, SETVI (Foxtail, Green)
Outline: as §2

[9] = test system: AMBROSIA ARTEMISIIFOLIA, L.; assay: Preemergence herbicidal evaluation, AMBEL (Ragweed, Common)
Outline: as §1

[10] = test system: ECHINOCHLOA CRUS-GALLI, (L) BEAU; assay: Preemergence herbicidal evaluation, ECHCG (Barnyardgrass)
Outline: as §1

[11] = test system: ORYZA SATIVA, L. TEBONNET; assay: Postemergence herbicidal evaluation, ORYSAT (Rice, Tebonnet)
Procedure: as §3, §4

[12] = test system: GALIUM APARINE; assay: Preemergence herbicidal evaluation, GALAP (Galium)
Outline: as §1

[13] = test system: CHENOPODIUM ALBUM, L.; assay: Preemergence herbicidal evaluation, CHEAL (Lambsquarters, Common)
Outline: as §1

[14] = test system: ABUTILON THEOPHRASTI, MEDIC.; assay: Postemergence herbicidal evaluation, ABUTH (Velvetleaf)
Procedure: as §3, §4

[15] = test system: AMBROSIA ARTEMISIIFOLIA, L.; assay: Postemergence herbicidal evaluation, AMBEL (Ragweed, Common)
Procedure: as §3, §4

[16] = test system: CASSIA OBTUSIFOLIA, L.; assay: Postemergence herbicidal evaluation, CASOB (Sicklepod)
Procedure: as §3, §4

[17] = test system: SETARIA VIRIDIS, (L) BEAU; assay: Preemergence herbicidal evaluation, SETVI (Foxtail, Green)
Outline: as §1

[18] = test system: CHENOPODIUM ALBUM, L.; assay: Postemergence herbicidal evaluation, CHEAL (Lambsquarters, Common)
Procedure: as §3, §4

[19] = test system: ORYZA SATIVA, L. TEBONNET; assay: Preemergence herbicidal evaluation, ORYSAT (Rice, Tebonnet)
Outline: as §1

[20] = test system: CASSIA OBTUSIFOLIA, L.; assay: Preemergence herbicidal evaluation, CASOB (Sicklepod)
Outline: as §1

SMILES: COC(=O)Cn1c(=O)n(C)c(=O)n(-c2cc(N3C(=O)C4=C(CCCC4)C3=O)c(F)cc2F)c1=O [Compound 10, Methyl 3-[5-(1-cyclohexene-1,2-dicarbox-imido)-2,4-difluorophenyl]-5-methyl-2,4,6-trioxo-s-triazine-1(2H)-acetate]
- Herbicide rating (0-9) ZEAMX ([1]; 0.125 kg/ha): 0.0
- Herbicide rating (0-9) ZEAMX ([1]; 0.250 kg/ha): 0.0
- Herbicide rating (0-9) ZEAMX ([1]; 0.500 kg/ha): 0.0
- Herbicide rating (0-9) ECHCG ([2]; 0.125 kg/ha): 0.0
- Herbicide rating (0-9) ECHCG ([2]; 0.250 kg/ha): 0.0
- Herbicide rating (0-9) ECHCG ([2]; 0.500 kg/ha): 0.0
- Herbicide rating (0-9) TRZAWO ([3]; 0.125 kg/ha): 0.0
- Herbicide rating (0-9) TRZAWO ([3]; 0.250 kg/ha): 0.0
- Herbicide rating (0-9) TRZAWO ([3]; 0.500 kg/ha): 0.0
- Herbicide rating (0-9) IPOSS ([4]; 0.125 kg/ha): 0.0
- Herbicide rating (0-9) IPOSS ([4]; 0.250 kg/ha): 0.0
- Herbicide rating (0-9) IPOSS ([4]; 0.500 kg/ha): 0.0
- Herbicide rating (0-9) ABUTH ([5]; 0.250 kg/ha): 0.0
- Herbicide rating (0-9) ABUTH ([5]; 0.500 kg/ha): 0.0
- Herbicide rating (0-9) ZEAMX ([6]; 0.125 kg/ha): 4.0
- Herbicide rating (0-9) ZEAMX ([6]; 0.250 kg/ha): 4.0
- Herbicide rating (0-9) ZEAMX ([6]; 0.500 kg/ha): 4.0
- Herbicide rating (0-9) GLXMAW ([7]; 0.125 kg/ha): 0.0
- Herbicide rating (0-9) GLXMAW ([7]; 0.250 kg/ha): 0.0
- Herbicide rating (0-9) GLXMAW ([7]; 0.500 kg/ha): 0.0
- Herbicide rating (0-9) SETVI ([8]; 0.125 kg/ha): 0.0
- Herbicide rating (0-9) SETVI ([8]; 0.250 kg/ha): 0.0
- Herbicide rating (0-9) SETVI ([8]; 0.500 kg/ha): 0.0
- Herbicide rating (0-9) AMBEL ([9]; 0.125 kg/ha): 0.0
- Herbicide rating (0-9) AMBEL ([9]; 0.250 kg/ha): 0.0
- Herbicide rating (0-9) AMBEL ([9]; 0.500 kg/ha): 0.0

SMILES: CC(C)OC(=O)Cn1c(=O)n(C)c(=O)n(-c2cc(N3C(=O)C4=C(CCCC4)C3=O)c(F)cc2Cl)c1=O [Compound 4, Isopropyl 3-[2-chloro-5-(1-cyclohexene-1,2-dicarboximido)-4-fluorophenyl]tetrahydro-5-methyl-2,4,6-trioxo-s-triazine-1(2H)-acetate]
- Herbicide rating (0-9) ECHCG ([10]; 0.125 kg/ha): 0.0
- Herbicide rating (0-9) ECHCG ([10]; 0.250 kg/ha): 0.0
- Herbicide rating (0-9) ECHCG ([10]; 0.500 kg/ha): 0.0
- Herbicide rating (0-9) ORYSAT ([11]; 0.125 kg/ha): 4.0
- Herbicide rating (0-9) ORYSAT ([11]; 0.250 kg/ha): 4.0
- Herbicide rating (0-9) ORYSAT ([11]; 0.500 kg/ha): 4.0
- Herbicide rating (0-9) GALAP ([12]; 0.125 kg/ha): 9.0
- Herbicide rating (0-9) GALAP ([12]; 0.250 kg/ha): 9.0
- Herbicide rating (0-9) GALAP ([12]; 0.500 kg/ha): 9.0
- Herbicide rating (0-9) CHEAL ([13]; 0.125 kg/ha): 9.0
- Herbicide rating (0-9) CHEAL ([13]; 0.250 kg/ha): 9.0
- Herbicide rating (0-9) CHEAL ([13]; 0.500 kg/ha): 9.0
- Herbicide rating (0-9) ZEAMX ([6]; 0.125 kg/ha): 4.5
- Herbicide rating (0-9) ZEAMX ([6]; 0.250 kg/ha): 4.5
- Herbicide rating (0-9) ZEAMX ([6]; 0.500 kg/ha): 4.5
- Herbicide rating (0-9) GLXMAW ([7]; 0.125 kg/ha): 0.0
- Herbicide rating (0-9) GLXMAW ([7]; 0.250 kg/ha): 0.0
- Herbicide rating (0-9) GLXMAW ([7]; 0.500 kg/ha): 0.0
- Herbicide rating (0-9) ABUTH ([14]; 0.125 kg/ha): 9.0
- Herbicide rating (0-9) ABUTH ([14]; 0.250 kg/ha): 9.0
- Herbicide rating (0-9) ABUTH ([14]; 0.500 kg/ha): 9.0

SMILES: COC(=O)Cn1c(=O)n(C)c(=O)n(-c2cc(N3C(=O)C4=C(CCCC4)C3=O)ccc2F)c1=O [Compound 5, Methyl 3-[5-(1-cyclohexene-1,2-dicarbox-imido)-2-fluorophenyl]tetrahydro-5-methyl-2,4,6-trioxo-s-triazine-1(2H)-acetate]
- Herbicide rating (0-9) ZEAMX ([1]; 0.125 kg/ha): 0.0
- Herbicide rating (0-9) ZEAMX ([1]; 0.250 kg/ha): 0.0
- Herbicide rating (0-9) ZEAMX ([1]; 0.500 kg/ha): 0.0
- Herbicide rating (0-9) ECHCG ([2]; 0.125 kg/ha): 0.0
- Herbicide rating (0-9) ECHCG ([2]; 0.250 kg/ha): 0.0
- Herbicide rating (0-9) ECHCG ([2]; 0.500 kg/ha): 0.0
- Herbicide rating (0-9) AMBEL ([15]; 0.125 kg/ha): 2.0
- Herbicide rating (0-9) AMBEL ([15]; 0.250 kg/ha): 2.0
- Herbicide rating (0-9) AMBEL ([15]; 0.500 kg/ha): 2.0
- Herbicide rating (0-9) ECHCG ([10]; 0.125 kg/ha): 0.0
- Herbicide rating (0-9) ECHCG ([10]; 0.250 kg/ha): 0.0
- Herbicide rating (0-9) ECHCG ([10]; 0.500 kg/ha): 0.0
- Herbicide rating (0-9) CASOB ([16]; 0.125 kg/ha): 0.0
- Herbicide rating (0-9) CASOB ([16]; 0.250 kg/ha): 0.0
- Herbicide rating (0-9) CASOB ([16]; 0.500 kg/ha): 0.0
- Herbicide rating (0-9) SETVI ([17]; 0.125 kg/ha): 0.0
- Herbicide rating (0-9) SETVI ([17]; 0.250 kg/ha): 0.0
- Herbicide rating (0-9) SETVI ([17]; 0.500 kg/ha): 0.0
- Herbicide rating (0-9) TRZAWO ([3]; 0.125 kg/ha): 0.0
- Herbicide rating (0-9) TRZAWO ([3]; 0.250 kg/ha): 0.0
- Herbicide rating (0-9) TRZAWO ([3]; 0.500 kg/ha): 0.0
- Herbicide rating (0-9) IPOSS ([4]; 0.125 kg/ha): 0.0
- Herbicide rating (0-9) IPOSS ([4]; 0.250 kg/ha): 0.0
- Herbicide rating (0-9) IPOSS ([4]; 0.500 kg/ha): 0.0
- Herbicide rating (0-9) ABUTH ([5]; 0.125 kg/ha): 0.0
- Herbicide rating (0-9) ABUTH ([5]; 0.250 kg/ha): 0.0
- Herbicide rating (0-9) ABUTH ([5]; 0.500 kg/ha): 0.0
- Herbicide rating (0-9) GALAP ([12]; 0.125 kg/ha): 0.0
- Herbicide rating (0-9) GALAP ([12]; 0.250 kg/ha): 0.0
- Herbicide rating (0-9) GALAP ([12]; 0.500 kg/ha): 0.0
- Herbicide rating (0-9) CHEAL ([13]; 0.125 kg/ha): 0.0
- Herbicide rating (0-9) CHEAL ([13]; 0.250 kg/ha): 0.0
- Herbicide rating (0-9) CHEAL ([13]; 0.500 kg/ha): 0.0
- Herbicide rating (0-9) GLXMAW ([7]; 0.125 kg/ha): 0.0
- Herbicide rating (0-9) GLXMAW ([7]; 0.250 kg/ha): 0.0
- Herbicide rating (0-9) GLXMAW ([7]; 0.500 kg/ha): 0.0
- Herbicide rating (0-9) CHEAL ([18]; 0.125 kg/ha): 0.0
- Herbicide rating (0-9) CHEAL ([18]; 0.250 kg/ha): 0.0
- Herbicide rating (0-9) CHEAL ([18]; 0.500 kg/ha): 0.0
- Herbicide rating (0-9) ORYSAT ([19]; 0.125 kg/ha): 0.0
- Herbicide rating (0-9) ORYSAT ([19]; 0.250 kg/ha): 0.0
- Herbicide rating (0-9) ORYSAT ([19]; 0.500 kg/ha): 0.0
- Herbicide rating (0-9) CASOB ([20]; 0.125 kg/ha): 0.0
- Herbicide rating (0-9) CASOB ([20]; 0.250 kg/ha): 0.0
- Herbicide rating (0-9) CASOB ([20]; 0.500 kg/ha): 0.0
- Herbicide rating (0-9) AMBEL ([9]; 0.125 kg/ha): 0.0
- Herbicide rating (0-9) AMBEL ([9]; 0.250 kg/ha): 0.0
- Herbicide rating (0-9) AMBEL ([9]; 0.500 kg/ha): 0.0
